Measurements as given in patent US20230128137A1, “BENZO FIVE-MEMBERED CYCLIC COMPOUND” (MEDSHINE DISCOVERY INC., priority 2020, published 2023).
Like-named read-outs stand apart in the source and are kept apart here.

Columns and labels:
[1] = Liver microsome metabolic stability in vitro, human; type: in vitro ADME; conditions: human liver microsomes
Experimental: (§1) 3.2 preparation of nicotinamide adenine dinucleotide phosphate cofactor solution: an appropriate amount of NADPH powder was weighed and diluted into 10 mM magnesium chloride solution (working solution concentration: 10 unit/mL; final concentration of reaction system: 1 unit/mL);
(§2) 3.3 preparation of liver microsomes: an appropriate concentration working solution of liver microsomes (human, SD rat, CD-1 mouse, beagle dog) was prepared in 100 mM potassium phosphate buffer;
(§3) 3.4 preparation of quenching solution: cold (4° C.) acetonitrile containing 200 ng/mL tolbutamide and 200 ng/mL labetalol as internal standard (IS) was used as quenching solution;
(§4) 3.5 experimental operation:
(§5) a. empty “incubation” plates T60 and NCF60 were preheated for 10 minutes;
(§6) b. the liver microsomes were diluted to 0.56 mg/mL with 100 mM phosphate buffer;
(§7) c. 445 μL of microsomal working solution (0.56 mg/mL) was transferred to the preheated “incubation” plates T60 and NCF60, and then the“incubation” plates T60 and NCF60 were preincubated for 10 min with continuous shaking at 37° C. 54 μL of liver microsomes were transferred to a blank plate, and 6 μL of NAPDH cofactor was added to the blank plate, and then 180 μL of quenching solution was added thereto;
(§8) e. for NCF60 plate, 50 μL of buffer was added thereto and the mixture was fully mixed for three times. Timing was started; the plate was shaken at 37° C. for 60 minutes;
(§9) f. in “quenching” plate TO, 180 μL of quenching solution and 6 μL of NAPDH cofactor were addded to make sure that the plate was cooled down to prevent evaporation;
(§10) g. for T60 plates, the mixture was fully mixed for three times, and 54 μL of mixture was immediately transferred to the “quenching” plate at the 0 min time point. 44 μL of NAPDH cofactor was then added to the culture plate (T60). Timing was started; the plate was shaken at 37° C. for 60 minutes;
(§11) h. at 5, 10, 20, 30 and 60 min, 180 μL of quenching solution was added to the “quenching” plate, and the mixture was mixed for one time, and 60 μL of sample was continuously transferred from the T60 plate to the “quenching” plate at each time point;
(§12) i. for NCF60: the mixture was mixed for one time, and 60 μL of sample was transferred from the NCF60 culture dish to the “quenching” plate containing quenching solution at 60 minutes time point;
(§13) j. all sampling plates were shaked for 10 minutes, then centrifuged at 4000 rpm for 20 minutes at 4° C.;
(§14) k. 60 μL of supernatant was transferred into 180 μL of HPLC water and stirred with a plate shaker for 10 min;
(§15) 1. before LC-MS/MS analysis, each bioanalysis plate was sealed and shaked for 10 minutes.

[2] = Liver microsome metabolic stability in vitro, beagle dog; type: in vitro ADME; conditions: beagle dog liver microsomes
Experimental: as §1, §2, §3, §4, §5, §6, §7, §8, §9, §10, §11, §12, §13, §14, §15

RS4;11 cells = assay: CTG (CellTiter-Glo) test of inhibition of RS4;11 cell proliferation; type: cell-based; conditions: Homo sapiens, 72 hours incubation
Experimental: 2.1 Experimental objectives: To obtain the IC50 value of the test compound in RS4;11 cell lines;
2.2 incubation time: 72 hours;
2.3 experimental method: CTG (Cell Titer-Glo™ Luminescent Cell Viability Assay);
a. when the cells were fused to 80%, the cells were collected and counted;
b. RS4; 11 cell suspension was diluted to 5000 cells/well and 20 uls of cell suspension was seeded in each well of 384-well plate;
c. the cell plates were placed back to 37° C. and incubated in a 5% carbon dioxide incubator for 24 hours;
d. the test compound was prepared into DMSO solution, and 5 μL of each was added to the designated well of the test plate, and the final concentration of DMSO solution was 0.5%;
e. initiation cell viability was detected by CTG;
f. the test plate was put back into the incubator and incubated for another 72 hours;
g. after 72 hours incubation, CellTiter-Glo™ luminescent cell viability assay was completed according to the manufacturer's manual;

[3] = Liver microsome metabolic stability in vitro, CD-1 mouse; type: in vitro ADME; conditions: CD-1 mouse liver microsomes
Experimental: as §1, §2, §3, §4, §5, §6, §7, §8, §9, §10, §11, §12, §13, §14, §15

[4] = In vivo pharmacokinetic property evaluation in CD-1 mice (IV and PO); conditions: mouse, plasma; for MRT last: read-out: MRT0-last
Experimental: The in vivo pharmacokinetic properties of compound 2 were evaluated in CD-1 mice by intravenous administration and oral administration. IV (intravenous injection) refers to slow administration in jugular vein, and PO (oral administration) refers to administration by gavage. Formulations for intravenous and gavage administration were both 2.5% dimethylsulfoxide, 5% ethanol, 10% cremophor EL, 20% glucose solution (concentration of 5%), 62.5% water. PK time points in the intravenous injection group were 5 min, 15 min, 30 min, 1 h, 2 h, 4 h, 8 h, 12 h and 24 h after administration, respectively, and PK time points in the gastric administration group were 15 min, 30 min, 1 h, 2 h, 4 h, 8 h and 24 h after administration, respectively. Approximately 0.03 mL of blood was collected at each time point. Blood from each sample was transferred to a plastic microcentrifuge tube containing EDTA-K2, centrifuged at 4000 rpm for 5 min in a 4° C. centrifuge, and plasma was collected within 15 min, and the plasma samples were stored in polypropylene tubes. Before the test, samples were stored in a refrigerator at −75±15° C. The concentration of compounds in plasma samples was analyzed using the LCMS/MS method and the following pharmacokinetic parameters were calculated using WinNonlin software (Phoenix™, version 6.1): IV: C0, Cl, Vd, T1/2, AUC0-last, MRT0-last, regression points; PO: Cmax, Tmax, T1/2, AUC0-last, MRT0-last, regression points. Pharmacokinetic data were described using descriptive statistics, such as mean, standard deviation.

[5] = Liver microsome metabolic stability in vitro, SD rat; type: in vitro ADME; conditions: SD rat liver microsomes
Experimental: as §1, §2, §3, §4, §5, §6, §7, §8, §9, §10, §11, §12, §13, §14, §15

With `CC1(C)CCC(CN2CCN(c3ccc(C(=O)NS(=O)(=O)c4cc([N+](=O)[O-])c(NCC5CCOCC5)c5[nH]cnc45)c(Oc4cnc5[nH]ccc5c4)c3)CC2)=C(c2ccc(Cl)cc2)C1` [Compound 2] the “Remaining (T = 60 min)” value ([1]; 60 min incubation) was 45.6%, the CLint scaled at 1 µM ([1]; human) was 23.9 mL/min/kg and the half-life at 1 µM ([1]; human) was 52.2 min. The CLint scaled at 1 µM [2] was 26.8 mL/min/kg, the half-life at 1 µM [2] was 74.4 min and the “Remaining (T = 60 min)” value ([2]; 60 min incubation) was 52%. It also gave an IC50 (RS4;11 cells) of 2.7 nM, a CLint scaled at 1 µM [3] of 79.7 mL/min/kg and a half-life at 1 µM [3] of 68.8 min. The “Remaining (T = 60 min)” value ([3]; 60 min incubation) was 54.6%, the AUC(0-t) ([4]; 1 mg/kg, IV, 1 mpk) was 1.8 µM·h and the C0 ([4]; 1 mg/kg, IV, 1 mpk) was 11.7 µM. The clearance ([4]; 1 mg/kg, IV, 1 mpk) was 10.2 mL/min/kg, the half-life ([4]; 1 mg/kg, IV, 1 mpk) was 201 min and the MRT last ([4]; 1 mg/kg, IV, 1 mpk) was 1.21 h. The Vd ([4]; 1 mg/kg, IV, 1 mpk, read-out: Vdss) was 0.834 L/kg, the AUC(0-t) ([4]; 50 mg/kg, PO, 50 mpk) was 12.8 µM·h and the Cmax ([4]; 50 mg/kg, PO, 50 mpk) was 1790 nM. For the same compound, the Tmax ([4]; 50 mg/kg, PO, 50 mpk) was 3 h, the half-life ([4]; 50 mg/kg, PO, 50 mpk) was 246 min and the MRT last ([4]; 50 mg/kg, PO, 50 mpk) was 6.22 h. The CLint scaled at 1 µM [5] was 23.6 mL/min/kg, the half-life at 1 µM [5] was 106 min and the “Remaining (T = 60 min)” value ([5]; 60 min incubation) was 64.1%.
